Drawing on publication PMC6713088, “Synthesis and biological evaluation of novel 3-(quinolin-4-ylamino)benzenesulfonamides as carbonic anhydrase isoforms I and II inhibitors” (Journal of Enzyme Inhibition and Medicinal Chemistry, 2019), this text covers Ki for seven compounds.

Where two headings read alike, the source gives them in different places.

One assay deals with T1, hCA II (Homo sapiens, UniProt P00918).
T1 construct: gene CA2; cytosolic isoform
As to the kind of experiment: stopped-flow CO2 hydration assay. It counts as biochemical. From the text:
(§1) stopped-flow CO2 hydration assay on hCA II

The next assay concerns the target T2, hCA I (Homo sapiens, UniProt P00915).
T2 construct: gene CA1; cytosolic isoform
As to the kind of experiment: stopped-flow CO2 hydration assay. Type of assay: biochemical. From the text: stopped-flow CO2 hydration assay on hCA I

The nature of assay [1]: stopped-flow CO2 hydration assay. Type of assay: biochemical, Homo sapiens. To be noted: read-out: KI (nM) ^* / hCA I.
Excerpt: as §1

T2 sequence (P00915 2-261): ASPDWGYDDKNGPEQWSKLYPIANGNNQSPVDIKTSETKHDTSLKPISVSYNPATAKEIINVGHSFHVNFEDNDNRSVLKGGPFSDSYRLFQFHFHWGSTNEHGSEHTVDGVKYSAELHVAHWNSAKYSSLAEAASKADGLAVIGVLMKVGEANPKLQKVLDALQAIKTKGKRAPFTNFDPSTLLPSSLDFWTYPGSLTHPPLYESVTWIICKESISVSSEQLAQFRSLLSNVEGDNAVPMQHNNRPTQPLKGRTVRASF

As for `CCOC(=O)c1cnc2ccc(Br)cc2c1Nc1cccc(S(N)(=O)=O)c1` [6d, Ethyl 6-bromo-4-((3-sulphamoylphenyl)amino)quinoline-3-carboxylate], the Ki came to 3590 nM at hCA II and 9090 nM on hCA I.

Regarding `CCOC(=O)c1cnc2ccc(OC)cc2c1Nc1cccc(S(N)(=O)=O)c1` [6c, Ethyl 6-methoxy-4-((3-sulphamoylphenyl)amino)quinoline-3-carboxylate], the Ki on hCA II worked out at 175 nM; on hCA I, 966 nM.

Consider `CCOC(=O)c1cnc2cc(Cl)c(F)cc2c1Nc1cccc(S(=O)(=O)NC)c1` [compound 11, Ethyl 7-chloro-6-fluoro-4-((3-(N-methylsulphamoyl)phenyl)amino)quinoline-3-carboxylate], for which the Ki (in assay [1]; at hCA I) was greater than 10000 nM throughout.

`CCOC(=O)c1cnc2ccccc2c1Nc1cccc(S(N)(=O)=O)c1` [6a, Ethyl 4-((3-sulphamoylphenyl)amino)quinoline-3-carboxylate]: the Ki on hCA II was determined as 223 nM; at hCA I it was 4230 nM.

Consider `CCOC(=O)c1cnc2ccc(C)cc2c1Nc1cccc(S(N)(=O)=O)c1` [6b, Ethyl 6-methyl-4-((3-sulphamoylphenyl)amino)quinoline-3-carboxylate], for which the results for the Ki on hCA II and on hCA I were 782 nM and 6640 nM, respectively.

As to `CCOC(=O)c1cnc2cc(Cl)cc(Cl)c2c1Nc1cccc(S(N)(=O)=O)c1` [6f, Ethyl 5,7-dichloro-4-((3-sulphamoylphenyl)amino)quinoline-3-carboxylate], the Ki (in assay [1]; on hCA I) was greater than 10000 nM throughout.

On to `CCOC(=O)c1cnc2cc(Cl)c(F)cc2c1Nc1cccc(S(N)(=O)=O)c1` [6e, Ethyl 7-chloro-6-fluoro-4-((3-sulphamoylphenyl)amino)quinoline-3-carboxylate], for which the Ki at hCA II (CO2 […], […] Hepes pH […] Na2SO4, […] min preincubation at room temperature) came out at 83.3 nM; on hCA I, 7600 nM.
